Data reported in US20220178931A1, “Sensor” (The University of Bristol, priority 2019, published 2022).

Columns and labels:
[1] = DPH displacement from alpha-helical barrel, competitive inhibition assay, analyte beta-carotene; settings: barrel incubated with DPH or TMA-DPH; analyte 0.05-300 μM; fluorescence; dash = no competitive binding observed; read-out: B-carotene K1
Protocol: (§1) The four analytes below were selected based on having hydrophobic properties and being able to adopt an elongate configuration, as these were postulated to have the best chance of displacing a reporter dye.
(§2) DPH was used as the reporter dye, and displacement of DPH was recorded using a standard competitive inhibition assay. In other words, the ability of an analyte to inhibit DPH binding was recorded by the inhibition constant Ki. Alpha-helical barrels were incubated with DPH, or its cationic variant 1-(4-trimethylammoniumphenyl)-6-phenyl-1,3,5-hexatriene p-toluenesulfonate (TMA-DPH). Analyte was added (0.05-300 μM) and the fluorescence signal measured.

[2] = DPH displacement from alpha-helical barrel, competitive inhibition assay, analyte farnesol; settings: barrel incubated with DPH or TMA-DPH; analyte 0.05-300 μM; fluorescence; dash = no competitive binding observed; read-out: Famesol K1
Protocol: as §1, §2

[3] = DPH displacement from alpha-helical barrel, competitive inhibition assay, analyte palmitic acid; format: binding; settings: barrel incubated with DPH or TMA-DPH; analyte 0.05-300 μM; fluorescence; read-out: Palmitic acid K1
Protocol: as §1, §2

[4] = Prodan reporter dye binding to alpha-helical barrel lumen (fluorescence titration); settings: for Kd: prodan 1 μM incubated with alpha-helical barrel 0.5-500 μM for up to 2 hours, fluorescent signal, dash = did not bind; for prodan binding to alpha-helical barrel (in words): summary of KD table
Protocol: (§3) The dyes 1,6-diphenyl-1,3,5-hexatriene (DPH) and 6-propionyl-2-dimethylaminonaphthalene (prodan) were assayed against a number of alpha-helical barrels to determine their dissociation constants, KD. DPH or prodan (1 μM) was incubated with varying concentrations of alpha-helical barrel (0.5-500 μM) for up to 2 hours, and the fluorescent signal measured at the corresponding emission wavelength.

[5] = DPH reporter dye binding to alpha-helical barrel lumen (fluorescence titration); settings: DPH 1 μM incubated with alpha-helical barrel 0.5-500 μM for up to 2 hours; fluorescent signal
Protocol: as §3

[6] = DPH displacement from alpha-helical barrel, competitive inhibition assay, analyte retinol; format: binding; settings: barrel incubated with DPH or TMA-DPH; analyte 0.05-300 μM; fluorescence; read-out: Retinol K1
Protocol: as §1, §2

GEIAQALREIAKALREIAWALREIAQALRG [CC-Hept, 7 helices in barrel]
Ki [1]: 12.1 ± 5.4 µM
Ki [2]: 0.6 ± 0.2 µM
Ki [3]: 0.9 ± 0.3 µM
Kd [4]: 40.5 ± 4 µM
Kd [5]: 8.9 ± 2.2 µM
Ki [6]: 4 ± 0.7 µM

GKIEQILQKIEKILQKIEWILQKIEQILQG [CC-Pent, alpha helix self-assembling into alpha-helical barrel]
Ki [1]: > 300 µM
Ki [2]: > 300 µM
Ki [3]: 1.1 ± 0.5 µM
Kd [4]: > 500 µM
prodan binding to alpha-helical barrel (in words) [4]: did not bind
Kd [5]: 22.4 ± 4.3 µM
Ki [6]: 14.8 ± 4.1 µM

GELKAIAQELKAIAKELKAIAWELKAIAQG [CC-Hex, 6 helices in barrel]
Ki [1]: > 300 µM
Ki [2]: 23.9 ± 2.4 µM
Ki [3]: 1 ± 0.3 µM
Kd [4]: > 500 µM
prodan binding to alpha-helical barrel (in words) [4]: did not bind
Kd [5]: 7.1 ± 1.3 µM
Ki [6]: 6.4 ± 3.2 µM

GEIAKSLKEIAKSLKEIAWSLKEIAKSLKG [CC-Hex2, 6 helices in barrel]
Ki [1]: > 300 µM
Ki [2]: 8.6 ± 1.3 µM
Ki [3]: 1.1 ± 0.3 µM
Kd [4]: 39.2 ± 6.8 µM
Kd [5]: 9.5 ± 1.1 µM
Ki [6]: 4.6 ± 1.9 µM
